Results taken from patent publication US9234038B2, “Compositions and method for the diagnosis, prevention and treatment of alzheimer's disease” (Seoul National University Industry Foundation, priority 2007, dated 2016).
Entries after “also recorded” stand apart in the source; their conditions may differ.

Tests used:
BALB/c mice [1] = assay: Memory test (Y-maze, passive avoidance) after i.c.v. Aβ; assay type: in vivo, mouse; details: i.c.v. injection of Aβ 410 pmole plus peptide, tests after one day
Experimental: Tg2576 mice were not used in this test because it takes a lot of time to breed the animals, and they are expensive. Instead, normal mice were used in this memory test because the same AD symptoms as in Tg2576 mice were observed when Aβ was injected into the brains of normal mice. Normal BALB/c mice were injected intracerebroventricularly (i.c.v.) with Aβ (1.855 μg/5 μl, 410 pmole) alone or in combination with a specific peptide. After one day, a Y-maze test and a passive avoidance test were performed. Memory was assessed as described in Yan et al., Br. J. Pharmacol, 133:89-96, 2001.

BALB/c mice [2] = assay: Immunostaining of intraneuronal Aβ accumulation in mouse brain; assay type: in vivo; details: mice treated i.c.v. with Aβ plus peptide
Experimental: Brain specimens were prepared from the mice of Example 13 according to the same method as in Example 6. Sections were immunostained with primary antibodies, anti-Aβ antibody (Biosource, USA) plus an antibody to a marker of neurons, anti-neuron specific enolase (NSE) antibody (Axxora, Swiss) or anti-neuron specific nuclear protein (NeuN) antibody (Chemicon, USA), and with secondary antibodies, anti-mouse-FITC antibody (goat anti-mouse IgG conjugated to FITC (Santa Cruz Biotechnology, USA), anti-mouse-TRITC antibody (goat anti-mouse IgG conjugated to TRITC (Santa Cruz Biotechnology, USA), and anti-rabbit-goat-anti-mouse IgG conjugated to horseradish peroxidase (Santa Cruz Biotechnology, USA)).

FcγRIIb-CD40 chimera = biological target: T1, FcγRIIb-CD40 chimera (UniProt P25942+Q63203); assay: FcγRIIb-CD40 chimera NF-κB luciferase assay of Aβ binding; assay type: cell-based, rat; details: Aβ 5 μM
T1 construct: an extracellular domain of FcγRIIb was genetically fused to CD40, consisting of a transmembrane domain and a cytoplasmic domain; human CD40 transmembrane and cytoplasmic domains (fusion partner); expressed in transfected cells; host or cells: NIH3T3
T1 sequence (Q63203+P25942 with tags, fused parts or gaps): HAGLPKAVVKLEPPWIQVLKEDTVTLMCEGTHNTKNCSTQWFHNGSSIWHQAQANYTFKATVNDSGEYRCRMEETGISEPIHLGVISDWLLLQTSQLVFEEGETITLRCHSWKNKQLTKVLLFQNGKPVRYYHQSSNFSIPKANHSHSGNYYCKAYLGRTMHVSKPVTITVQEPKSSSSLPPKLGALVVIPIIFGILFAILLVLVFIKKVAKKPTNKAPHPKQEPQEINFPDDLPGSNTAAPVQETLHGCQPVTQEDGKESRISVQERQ
From the text: In order to investigate whether FcγRIIb binds to Aβ in a specific manner, an extracellular domain of FcγRIIb was genetically fused to CD40, consisting of a transmembrane domain and a cytoplasmic domain. The resulting FcγRIIb-CD40 fusion gene was expressed in NIH3T3 cells to increase NF-κ B activity, a signal transducer of CD40, when the fusion protein binds to Aβ. The chimeric gene was constructed as follows. A rat FcγRIIb extracellular region and human CD40 transmembrane and cytoplasmic domains were amplified by performing PCR with FcγRIIb-ED-5′-NheI primer (5′-[…]-3′: SEQ ID No. 15), FcγRIIb-ED-3′-HindIII primer (5′-[…]3′: SEQ ID No. 16), CD40-TM+cyto-5′ primer (5′-[…]-3′: SEQ ID No. 17), and CD40-TM+cyto-3′ primer (5′-[…]-3′: SEQ ID No. 18). PCR products were inserted into a pEGFP-N1 vector according to the same method as in Example 3. Cells were transfected with the chimeric gene, CD40, TNFRI, pcDNA3 (mock) along with an NF-kB-luciferase gene, and were exposed to 5 μM of Aβ or 20 ng/ml of TNF. NF-κ B activity was assessed, as described in Woo et al., FEBS Lett. 578, 239-244, 2004.
Based on the results of Example 10, a sequence spanning from the first to ninth residues from the N-terminus of Aβ, and a 95 to 101 sequence and a 107 to 114 sequence of mouse FcγRIIb, which are Aβ docking sites, were synthesized. Also, peptides, in which a residue involved in Aβ-cγRIIb binding in the above sequences was replaced with alanine, were synthesized. The peptides (wild type and mutant) have the sequences represented by SEQ ID Nos. 19 to 28 (panel a, FIG. 10). The synthesized peptides were individually allowed to react with a mixture of FcγRIIb-CD40 and Aβ (5 μM) or PBS. Then, luciferase activity was measured.

Aβ1-42 = biological target: T2, Aβ1-42 (Homo sapiens, UniProt P05067); assay: In vitro binding assay (immunoprecipitation, Western blot); details: 5 μM Aβ, 20 μg FcγRIIb-ED, 37° C. 3 hrs
T2 construct: subjected to Western blotting to assess the association between FcγRII and Aβ1-42; purchased Sigma
T2 sequence (P05067 672-713): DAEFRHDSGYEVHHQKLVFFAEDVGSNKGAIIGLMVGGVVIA
Experimental: 5 μM of Aβ was mixed with 20 μg of FcγRIIb-ED or 20 μg of BSA in vitro, and was incubated at 37° C. for 3 hrs. The reaction mixture was incubated with anti-FcγRIIb polyclonal antibody or anti-GST antibody for 2 hrs, and then with Protein G for 3 hrs (binding solution: 50 mM Tris-HCl, pH 7.4, 1 mM DTT, 0.5 mM EDTA, 0.01% Triton X-100, 0.5 mg/ml bovine serum albumin, 10% (v/v) glycerol, protease inhibitors cocktail, several concentrations of NP-40). The beads were washed three times and subjected to Western blotting to assess the association between FcγRII and Aβ1-42. Western blotting was carried out with K9.361 antibody and anti-Aβ antibody (primary antibody: 71-5800 (Zymed, USA); secondary antibody: goat anti-rabbit IgG conjugated to horseradish peroxidase (Santa Cruz Biotechnology, USA).

FcγRIIb = assay: Western blot of FcγRIIb expression in Aβ-exposed B103 cells treated with FcγRIIb ED; assay type: cell-based, rat; details: 5 μM Aβ 48 hrs; 100 μg FcγRIIb ED
Experimental: (§1) An FcγRIIb extracellular domain (ED) was purified as described in Sondermann et al., EMBO J, 18:1095-1103, 1999. Neuronal B103 cells or primary-cultured neuronal cells were exposed to 5 μM of Aβ for 48 hrs. Then, cells were treated or not treated with 100 μg of the purified FcγRIIb ED, or treated or not treated with 100 μg of bovine serum albumin (BSA). B103 cells were subjected to Western blotting, which was performed with anti-FcγRIIb antibody as described in Example 2-2. The primary neuronal culture was evaluated for cell survival as described in Example 3.

[3] = test system: primary-cultured neuronal cells; assay: Cell survival of Aβ-exposed primary neuronal culture treated with FcγRIIb ED; assay type: cell-based, rat; details: 5 μM Aβ 48 hrs, 100 μg FcγRIIb ED, compared to BSA
Experimental: as §1

B103 cells [4] = assay: Viability of siRNA-transfected B103 cells exposed to Aβ; assay type: cell-based, rat; details: 5 μM Aβ, 48 hrs
From the text: Small interfering RNAs (siRNAs) inhibiting the expression of FcγIIb and receptors for advanced glycation end-product (RAGE), which is known as a cell surface receptor of Aβ, were constructed, and their effects on cell death were compared to each other. A siRNA duplex was formed by hybridizing sense and antisense complementary RNA oligonucleotides, listed in Table 1, below, and was inserted into pSuper-neo (Oligoengine, USA). The siRNA expression vectors thus constructed were individually transfected into B103 cells using lipofectamine (Invitrogen, USA) according to the manufacturer's protocol. The resulting transfected cells were designated “pSuper-neo”, “psiFcγRIIb#1”, “psiFcγRIIb#2”, “psiRAGE#1”, and “psiRAGE#2”. Then, transfected cells were subjected to Western blot analysis. […] Then, the transformed B103 cells were exposed to 5 μM of Aβ or PBS for 48 hrs, and their viability was evaluated. Cell survival was assessed through trypan blue exclusion, Hoechst staining (Sigma, USA), and Annexin V labeling (Promega, USA). The survival of effector cells and cells introduced with pEGFP (Clontech, USA) was determined by observing the morphology of GFP-positive cells under a fluorescence microscope (Leica DMRBE, Germany). Cells were determined to be dead when the cell morphology changed to a spherical shape and the cell membrane was disrupted or destroyed.

B103 cells [5] = assay: Immunostaining of intracellular Aβ accumulation in siRNA-transfected B103 cells; assay type: cell-based, rat; details: 100 nM Aβ, 12 hrs
Experimental: psiFcγRIIb #1 cells or psiRAGE #1 cells, prepared in Example 4, were exposed to 100 nM of Aβ or PBS for 12 hrs, and immunostained with anti-Aβ antibody (4G8; Signet, USA) according to the same method as in Example 2-3.

Molecule: peptide #7: mutant peptide having an alanine substitution for a residue responsible for Aβ-FcγRIIb binding; among SEQ ID Nos. 19 to 28 (DAEARHASG; Synthetic peptide #7 for interaction inhibitor)
- Aβ-induced memory decline (BALB/c mice [1]): failed to reverse memory decline
- intraneuronal Aβ accumulation in brain (BALB/c mice [2]): strong intraneuronal Aβ staining
- NF-κB activation induced through binding of Aβ to FcγRIIb-CD40 (luciferase activity) (FcγRIIb-CD40 chimera): sharp decrease in inhibitory effects

Molecule: peptide #1: synthesized peptide among SEQ ID Nos. 19 to 28; corresponds to a binding region in Aβ or FcγRIIb; probably SEQ ID No. 19 (DAEFRHDSG; Synthetic peptide #1 for interaction inhibitor)
- Aβ-induced memory decline (BALB/c mice [1]; listed as #1): strongly reduce; also recorded: restore
- intraneuronal Aβ accumulation in brain (BALB/c mice [2]; listed as #1): disappeared; also recorded: completely inhibited
- NF-κB activation induced through binding of Aβ to FcγRIIb-CD40 (luciferase activity) (FcγRIIb-CD40 chimera; listed as #1): strongly inhibited; also recorded: effectively inhibited

Molecule: 9: synthesized peptide among SEQ ID Nos. 19 to 28; corresponds to a binding region in Aβ or FcγRIIb; probably SEQ ID No. 27 (RCHSWRNK; Synthetic peptide #9 for interaction inhibitor) [compound 9]
- Aβ-induced memory decline (BALB/c mice [1]): strongly reduce; also recorded: restore
- NF-κB activation induced through binding of Aβ to FcγRIIb-CD40 (luciferase activity) (FcγRIIb-CD40 chimera): strongly inhibited; also recorded: effectively inhibited

Molecule: FcγRIIb ED: purified FcγRIIb extracellular domain (SEQ ID No. 33), purified as described in Sondermann et al. 1999
- binding of Aβ to FcγRIIb-ED (Aβ1-42): directly bind
- Aβ-increased expression of FcγRIIb (FcγRIIb): suppressed
- Aβ signaling / relative cell viability [3]: completely inhibit
- Aβ signaling / relative cell viability ([3]; listed as FcγRIIb extracellular domain): increased to that of cells not exposed to Aβ; also recorded: increase the relative viability of neuronal cells exposed to Aβ to the same level as cells not exposed to Aβ

B1: siRNA against RAGE: siRNA against RAGE, oligomers SEQ ID Nos. 13 and 14, inserted into pSuper-neo (nucleic acid)
sense: GATCCCCGCTCCGGATGAAGAATCAGTTCAAGAGACTGATTCTTCATCCGGAGCTTTTTGGAAA
antisense: AGCTTTTCCAAAAAGCTCCGGATGAAGAATCAGTCTCTTGAACTGATTCTTCATCCGGAGCGGAGTCGGG
modifications: expressed or natural sequence; the letters are possibly those of the target site
- Aβ-induced cell death / survival (B103 cells [4]): low survival
- intracellular Aβ accumulation (B103 cells [5]): maintained
